From US20230192618A1, “CRYSTALLINE SALT FORMS OF N-(4-(4-(CYCLOPROPYLMETHYL)PIPERAZINE-1-CARBONYL)PHENYL)QUINOLINE-8-SULFONAMIDE” (Agios Pharmaceuticals, Inc., priority 2019, published 2023)

Legend:
[1] = Crystalline stability by XRPD after 7 days at 40° C./75% RH; format: physicochemical; details: for Crystalline Stability (XRPD pattern): after 7 days at 40° C./75% RH
Text: (§1) The Rigaku Smart-Lab X-ray diffraction system was configured for reflection Bragg- Brentano geometry using a line source X-ray beam. The x-ray source was a Cu Long Fine Focus tube that was operated at 40 kV and 44 ma. That source provided an incident beam profile at the sample that changes from a narrow line at high angles to a broad rectangle at low angles. Beam conditioning slits were used on the line X-ray source to ensure that the maximum beam size was less than 10 mm both along the line and normal to the line. The Bragg-Brentano geometry was a para-focusing geometry controlled by passive divergence and receiving slits with the sample itself acting as the focusing component for the optics. The inherent resolution of Bragg-Brentano geometry was governed in part by the diffractometer radius and the width of the receiving slit used. Typically, the Rigaku Smart-Lab was operated to give peak widths of 0.1 °2θ or less. The axial divergence of the X-ray beam was controlled by 5.0-degree Soller slits in both the incident and diffracted beam paths.
(§2) Powder samples were prepared in a low background Si holder using light manual pressure to keep the sample surfaces flat and level with the reference surface of the sample holder. Each sample was analyzed from 2 to 40 °2θ using a continuous scan of 6 °2θ per minute with an effective step size of 0.02 °2θ.
(§3) The chemical purity analyzed by HPLC and crystalline stability by XRPD for each of the crystalline salt Forms A to M prepared according to the procedures described in Examples 1-13 are summarized in Table 14. In short, these salt forms all yielded a chemical purity higher than 99%.

[2] = Crystalline stability by XRPD after heating (removal of volatiles); format: physicochemical
Text: as §1, §2, §3

In the case of O=C(c1ccc(NS(=O)(=O)c2cccc3cccnc23)cc1)N1CCN(CC2CC2)CC1 [Form G], the “Crystalline Stability (XRPD pattern)” value ([1]; listed as Crystalline Hydrochloride Salt Form G) was “unique XRPD pattern after 7 days at 40° C./75% RH”.
With O=C(c1ccc(NS(=O)(=O)c2cccc3cccnc23)cc1)N1CCN(CC2CC2)CC1 [Form D] the “Crystalline Stability (XRPD pattern)” value ([1]; listed as Crystalline Gentisate Salt Form D) was “no change in XRPD pattern after 7 days at 40° C./75% RH”.
With O=C(c1ccc(NS(=O)(=O)c2cccc3cccnc23)cc1)N1CCN(CC2CC2)CC1 [Form A] the “crystalline stability by XRPD” value ([1]; 7 days at elevated temperature and relative humidity (e.g., 40° C./75% RH)) was “maintained their original forms” and the “Crystalline Stability (XRPD pattern)” value ([1]; listed as Crystalline Besylate Salt FormA) was “no change in XRPD pattern after 7 days at 40° C./75% RH”.
With O=C(c1ccc(NS(=O)(=O)c2cccc3cccnc23)cc1)N1CCN(CC2CC2)CC1 [Form K] the “Crystalline Stability (XRPD pattern)” value ([1]; listed as Crystalline Phosphate Salt Form K) was “no change in XRPD pattern after 7 days at 40° C./75% RH”.
In the case of O=C(c1ccc(NS(=O)(=O)c2cccc3cccnc23)cc1)N1CCN(CC2CC2)CC1 [Form M], the “Crystalline Stability (XRPD pattern)” value ([1]; listed as Crystalline Tosylate Salt Form M) was “no change in XRPD pattern after 7 days at 40° C./75% RH”.
With O=C(c1ccc(NS(=O)(=O)c2cccc3cccnc23)cc1)N1CCN(CC2CC2)CC1 [Form L] the “Crystalline Stability (XRPD pattern)” value ([2]; after heating to 150° C. (removal of volatiles)) was “becomes non-crystalline” and the “Crystalline Stability (XRPD pattern)” value ([1]; listed as Crystalline Tartrate Salt Form L) was “unique XRPD pattern”.
In the case of O=C(c1ccc(NS(=O)(=O)c2cccc3cccnc23)cc1)N1CCN(CC2CC2)CC1 [Form C], the “Crystalline Stability (XRPD pattern)” value ([1]; listed as Crystalline Fumarate Salt Form C) was “no change in XRPD pattern after 7 days at 40° C./75% RH”.
In the case of O=C(c1ccc(NS(=O)(=O)c2cccc3cccnc23)cc1)N1CCN(CC2CC2)CC1 [Form F], the “Crystalline Stability (XRPD pattern)” value ([2]; after heating to 130° C. (removal of volatiles)) was “no change in XRPD pattern after 7 days at 40° C./75% RH or after heating to 130 °C (removal of volatiles)” and the “Crystalline Stability (XRPD pattern)” value ([1]; listed as Crystalline Hydrochloride Salt Form F) was “no change in XRPD pattern after 7 days at 40° C./75% RH or after heating to 130 °C (removal of volatiles)”.
For O=C(c1ccc(NS(=O)(=O)c2cccc3cccnc23)cc1)N1CCN(CC2CC2)CC1 [Form I], the “Crystalline Stability (XRPD pattern)” value ([1]; listed as Crystalline Malonate Salt Form I) was “no change in XRPD pattern after 7 days at 40° C./75% RH”.
For O=C(c1ccc(NS(=O)(=O)c2cccc3cccnc23)cc1)N1CCN(CC2CC2)CC1 [Form H], the “Crystalline Stability (XRPD pattern)” value ([1]; listed as Crystalline Maleate Salt Form H) was “no change in XRPD pattern after 7 days at 40° C./75% RH”.
In the case of O=C(c1ccc(NS(=O)(=O)c2cccc3cccnc23)cc1)N1CCN(CC2CC2)CC1 [Form E], the “Crystalline Stability (XRPD pattern)” value ([1]; listed as Crystalline Gentisate Salt Form E) was “significant changes in XRPD pattern after 7 days at 40° C./75% RH”.
With O=C(c1ccc(NS(=O)(=O)c2cccc3cccnc23)cc1)N1CCN(CC2CC2)CC1 [Form J] the “Crystalline Stability (XRPD pattern)” value ([2]; after heating to 175° C. (removal of volatiles)) was “no change in XRPD pattern” and the “Crystalline Stability (XRPD pattern)” value ([1]; listed as Crystalline Phosphate Salt Form J) was “additional peaks in XRPD pattern”.
In the case of O=C(c1ccc(NS(=O)(=O)c2cccc3cccnc23)cc1)N1CCN(CC2CC2)CC1 [Form B], the “Crystalline Stability (XRPD pattern)” value ([2]; after heating to 120° C. (removal of volatiles)) was “no change in XRPD pattern after 7 days at 40° C./75% RH or after heating to 120 °C (removal of volatiles)” and the “Crystalline Stability (XRPD pattern)” value ([1]; listed as Crystalline Fumarate Salt Form B) was “no change in XRPD pattern after 7 days at 40° C./75% RH or after heating to 120 °C (removal of volatiles)”.
